Here are results for 6 compounds from patent US20040147739A1, “Novel anti-infectives” (priority 2003, published 2004).

One may read the melting point as the temperature of the solid-liquid transition.

Take `O=c1c(C2=NS(=O)(=O)c3cc(I)ccc3N2)c(O)c2ccccc2n1CCC1CC1`: the melting point was 234 to 236 °C.
As for `CC(Br)CCn1c(=O)c(C2=Nc3ccccc3S(=O)(=O)N2)c(O)c2ccccc21` (stereo not drawn) [Example 10, 1-(3-Bromobutyl)-3-(1,1-dioxo-1,2-dihydrobenzo[1,2,4]thiadiazin-3-yl)-4-hydroxy-1-1H-quinolin-2-one], the figure is 190 to 194.5 °C (dec.); as for `O=c1c(C2=Nc3ccccc3S(=O)(=O)N2)c(O)c2ccccc2n1CC1CCCCC1` [Example 11, 1-Cyclohexylmethyl-3-(1,1-dioxo-1,2-dihydrobenzo[1,2,4]thiadiazin-3-yl)-4-hydroxy-1H-quinolin-2-one], 232 to 235 °C.
The same measure for `CC(C)=CCn1c(=O)c(C2=Nc3ccccc3S(=O)(=O)N2)c(O)c2ccccc21` [Example 12, 3-(1,1-Dioxo-1,2-dihydrobenzo[1,2,4]thiadiazin-3-yl)-4-hydroxy-1-(3-methylbut-2-eneyl)-1H-quinolin-2-one]: 249.1 to 251.1 °C.
As for `O=c1c(C2=Nc3ccccc3S(=O)(=O)N2)c(O)c2ccccc2n1CCCC(F)(F)F` [Example 18, 3-(1, l-Dioxo-1,2-dihydrobenzo[1,2,4]thiadiazin-3-yl)-4-hydroxy-1-(4,4,4-trifluorobutyl)-1H-quinolin-2-one], the figure is 248.9 to 250 °C; as for `O=c1c(C2=Nc3ccccc3S(=O)(=O)N2)c(O)c2ccccc2n1CCCCO` [Example 20, 3-(1,1-Dioxo-1,2-dihydrobenzo[1,2,4]thiadiazin-3-yl)-4-hydroxy-1-(4-hydroxybutyl)-1H-quinolin-2-one], 238.4 to 239.6 °C.
